Molecular target: CBP recombinant proteins (Homo sapiens (Human), UniProt Q92793)
Experiment: Competitive HTRF assay for affinity to CBP recombinant protein
Type: binding
Details: His-tagged CBP 5 nM, biotin-labeled ligand 50 nM, 1% DMSO

Sequence of CBP recombinant proteins (Q92793 whole entry): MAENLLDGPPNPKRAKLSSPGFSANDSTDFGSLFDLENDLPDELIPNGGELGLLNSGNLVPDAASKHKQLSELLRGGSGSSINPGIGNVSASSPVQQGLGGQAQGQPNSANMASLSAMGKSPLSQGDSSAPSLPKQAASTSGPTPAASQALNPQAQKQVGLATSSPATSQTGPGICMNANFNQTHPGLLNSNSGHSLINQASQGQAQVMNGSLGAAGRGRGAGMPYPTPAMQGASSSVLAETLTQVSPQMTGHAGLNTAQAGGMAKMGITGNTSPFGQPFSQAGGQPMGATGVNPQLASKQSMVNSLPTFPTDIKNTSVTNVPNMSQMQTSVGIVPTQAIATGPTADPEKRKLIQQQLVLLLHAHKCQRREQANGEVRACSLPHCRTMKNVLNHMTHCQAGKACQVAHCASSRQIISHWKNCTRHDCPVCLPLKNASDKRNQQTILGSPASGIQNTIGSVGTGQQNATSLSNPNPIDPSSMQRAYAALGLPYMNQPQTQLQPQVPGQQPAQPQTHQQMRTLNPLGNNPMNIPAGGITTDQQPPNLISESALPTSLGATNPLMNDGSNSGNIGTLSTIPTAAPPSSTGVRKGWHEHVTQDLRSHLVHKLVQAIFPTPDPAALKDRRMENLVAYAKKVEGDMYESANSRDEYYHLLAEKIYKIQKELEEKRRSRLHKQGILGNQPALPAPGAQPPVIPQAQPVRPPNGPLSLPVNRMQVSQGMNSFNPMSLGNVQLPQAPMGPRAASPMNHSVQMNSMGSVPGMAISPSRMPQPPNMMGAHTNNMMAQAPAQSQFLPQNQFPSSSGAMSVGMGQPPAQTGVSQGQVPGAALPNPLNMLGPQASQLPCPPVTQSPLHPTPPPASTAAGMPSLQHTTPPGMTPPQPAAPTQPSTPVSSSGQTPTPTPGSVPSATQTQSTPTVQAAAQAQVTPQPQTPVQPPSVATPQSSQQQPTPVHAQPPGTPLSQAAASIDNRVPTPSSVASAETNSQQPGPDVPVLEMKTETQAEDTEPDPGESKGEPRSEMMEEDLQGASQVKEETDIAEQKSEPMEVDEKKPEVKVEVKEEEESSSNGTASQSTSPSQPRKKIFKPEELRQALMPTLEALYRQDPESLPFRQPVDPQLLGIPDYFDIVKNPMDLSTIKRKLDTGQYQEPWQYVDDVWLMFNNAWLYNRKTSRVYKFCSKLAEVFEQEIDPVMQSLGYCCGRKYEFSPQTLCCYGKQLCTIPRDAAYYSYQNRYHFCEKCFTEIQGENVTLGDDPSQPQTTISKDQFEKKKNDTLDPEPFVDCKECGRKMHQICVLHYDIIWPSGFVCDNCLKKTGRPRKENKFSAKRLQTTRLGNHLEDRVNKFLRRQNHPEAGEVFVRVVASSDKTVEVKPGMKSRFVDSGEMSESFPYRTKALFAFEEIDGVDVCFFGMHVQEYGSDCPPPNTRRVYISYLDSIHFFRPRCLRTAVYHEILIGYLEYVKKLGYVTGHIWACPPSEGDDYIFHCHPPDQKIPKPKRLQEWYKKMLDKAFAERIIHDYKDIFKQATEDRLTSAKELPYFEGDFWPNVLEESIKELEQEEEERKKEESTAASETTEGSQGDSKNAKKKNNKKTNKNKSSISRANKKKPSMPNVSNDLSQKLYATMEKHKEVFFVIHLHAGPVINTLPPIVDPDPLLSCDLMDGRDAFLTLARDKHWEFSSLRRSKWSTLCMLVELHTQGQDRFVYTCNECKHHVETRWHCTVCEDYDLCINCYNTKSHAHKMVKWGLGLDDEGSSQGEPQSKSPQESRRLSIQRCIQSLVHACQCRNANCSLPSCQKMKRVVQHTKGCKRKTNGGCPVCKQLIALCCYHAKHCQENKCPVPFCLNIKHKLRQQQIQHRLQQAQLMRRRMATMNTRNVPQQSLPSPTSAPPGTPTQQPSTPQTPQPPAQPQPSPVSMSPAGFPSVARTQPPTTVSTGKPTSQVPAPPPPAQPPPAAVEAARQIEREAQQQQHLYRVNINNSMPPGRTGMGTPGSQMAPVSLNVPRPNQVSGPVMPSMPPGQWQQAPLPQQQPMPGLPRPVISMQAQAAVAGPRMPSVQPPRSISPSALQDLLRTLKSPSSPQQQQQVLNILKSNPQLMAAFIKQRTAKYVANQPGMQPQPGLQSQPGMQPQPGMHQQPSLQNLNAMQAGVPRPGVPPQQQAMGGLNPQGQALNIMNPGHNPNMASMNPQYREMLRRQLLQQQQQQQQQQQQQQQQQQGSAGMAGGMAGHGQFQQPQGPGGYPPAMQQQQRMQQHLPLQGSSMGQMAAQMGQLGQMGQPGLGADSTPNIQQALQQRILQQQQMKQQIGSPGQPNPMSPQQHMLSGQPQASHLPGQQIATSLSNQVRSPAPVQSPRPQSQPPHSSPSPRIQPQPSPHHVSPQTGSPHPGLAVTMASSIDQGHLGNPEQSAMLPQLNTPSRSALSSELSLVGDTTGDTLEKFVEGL

Compound | IC50
CNC(=O)c1cc2ccccc2c(N2CCCc3cc(-c4cnn(C)c4)ccc32)n1 [Example 1, 1-[6-(1-methyl-1H-pyrazol-4-yl)-3,4-dihydro-2H-quinolin-1-yl]-isoquinoline-3-carboxylic acid methylamide] | 0.072 µM
CNC(=O)c1cc2ncccc2c(N2CCCc3cc(-c4cnn(C)c4)c(C(F)F)cc32)n1 [Example 64, 5-[7-difluoromethyl-6-(1-methyl-1H-pyrazol-4-yl)-3,4-dihydro-2H-quinolin-1-yl]-[1,6]naphthyridine-7-carboxylic acid methylamide] | 0.014 µM
